According to patent US20220031684A1, “PROPHYLACTIC EFFICACY OF SEROTONIN 4 RECEPTOR AGONISTS AGAINST STRESS” (THE TRUSTEES OF COLUMBIA UNIVERSITY IN THE CITY OF NEW YORK, priority 2019, published 2022):

What was measured:
C57BL/6NTac mice [1] = assay: Novelty-suppressed feeding (NSF) in CORT model; format: in vivo; conditions: male C57BL/6NTac; Flx 18 mg/kg/day or RS-67,333 1.5 mg/kg/day for 3 weeks prior to CORT
Description: (§1) This chronic CORT elevation dysregulates the hypothalamic-pituitary-adrenal axis (HPA) in a manner similar to that observed in clinical depression. The dose and duration of CORT treatment was selected based on previous studies. CORT (35 μg/ml, equivalent to about 5 mg/kg/day) dissolved in 0.45% hydroxypropyl-o-cyclodextrin (0-CD) or vehicle (VEH) (0.45% j-CD) was available ad libitum in the drinking water in opaque bottles to protect it from light. VEH- and CORT-treated water was changed every 3 days to prevent possible degradation. Contextual Fear Conditioning (CFC): A 3-shock CFC procedure was administered as previously published. Briefly, mice were placed into context A and administered 3 2-s shocks (0.75 mA) at 180 s, 240 s or 300 s following placement into context A. Mice were removed from the context 15 s following the termination of shock (at 317 s). For context retrieval, mice were placed back into context A for 300 s. Electrophysiology: Electrophysiology was conducted as previously described. Statistical Analysis: Results from data analyses are expressed as means±SEM. Alpha was set to 0.05 for all analyses. Data were analyzed using GraphPad Prism v7.0 or v8.0. For all experiments, unless otherwise noted, one- or two-way ANOVAs with repeated-measures were applied to the data as appropriate. […] Videos were scored using ANY-maze behavior tracking software (Stoelting, Wood Dale, Ill.). […]

sigma 1 = sigma 1 (Homo sapiens, UniProt Q99720); conditions: cited from earlier work
[2] = target: other neurotransmitter receptors; conditions: except sigma receptors; cited from earlier work
C57BL/6NTac mice [3] = assay: Sucrose splash test (ST) in CORT model; format: in vivo; conditions: male C57BL/6NTac; Flx 18 mg/kg/day or RS-67,333 1.5 mg/kg/day for 3 weeks prior to CORT
Description: as §1

129S6/SvEv mice [4] = assay: Elevated plus maze (EPM) after CFC; format: in vivo
Description: (§2) This chronic CORT elevation dysregulates the hypothalamic-pituitary-adrenal axis (HPA) in a manner similar to that observed in clinical depression. The dose and duration of CORT treatment was selected based on previous studies. CORT (35 μg/ml, equivalent to about 5 mg/kg/day) dissolved in 0.45% hydroxypropyl-o-cyclodextrin (0-CD) or vehicle (VEH) (0.45% j-CD) was available ad libitum in the drinking water in opaque bottles to protect it from light. VEH- and CORT-treated water was changed every 3 days to prevent possible degradation. Contextual Fear Conditioning (CFC): A 3-shock CFC procedure was administered as previously published. Briefly, mice were placed into context A and administered 3 2-s shocks (0.75 mA) at 180 s, 240 s or 300 s following placement into context A. Mice were removed from the context 15 s following the termination of shock (at 317 s). For context retrieval, mice were placed back into context A for 300 s. Electrophysiology: Electrophysiology was conducted as previously described. Statistical Analysis: Results from data analyses are expressed as means±SEM. Alpha was set to 0.05 for all analyses. Data were analyzed using GraphPad Prism v7.0 or v8.0. For all experiments, unless otherwise noted, one- or two-way ANOVAs with repeated-measures were applied to the data as appropriate. Significant main effects and/or interactions were followed by Fisher's PLSD post hoc analysis or unpaired t-tests. Drugs: All drugs were prepared in physiological saline and all injections were administered intraperitoneally (i.p.) in volumes of 0.1 cc per […] body weight unless otherwise noted. Fluoxetine hydrochloride (Flx): Flx (BioTrend Chemicals AG, BG197, Zurich, Germany) was administered in the drinking water (18 mg/kg/day) for 3 weeks before the start of CORT. […] (R,S)-ketamine (K): (R,S)-ketamine (Ketaset III, Ketamine HCl injection, Fort Dodge Animal Health, Fort Dodge, Iowa) was administered in a single dose at 30 mg/kg of body weight 1 week before the start of CFC. […] PF-04995274: PF-04995274 (Sigma, Catalog No. 1331782-27-4, St. Louis, Mo.) was administered a single dose at 3 or 10 mg/kg of body weight 1 week before the start of CFC. PF-04995274 was dissolved in saline using an ultrasonic homogenizer (BioLogics, Model 3000, Manassas, Va.). Osmotic minipump implantation: ALZET osmotic minipumps (Model 2004, […], 28 days) were implanted subcutaneously under isoflurane anesthesia as previously described [S2]. Osmotic minipumps were rotated under the skin two to three times per week. Behavioral Assays: All experiments were approved by the Institutional Animal Care and Use Committee (IACUC) at the New York Psychiatric Institute (NYSPI). Elevated Plus Maze (EPM): Testing was performed as previously described [S3]. Briefly, the maze is a plus-cross-shaped apparatus consisting of four arms, two open and two enclosed by walls, linked by a central platform at a height of 50 cm from the floor. Mice were individually placed in the center of the maze facing an open arm and were allowed to explore the maze for 5 min. The time spent in and the number of entries into the open arms was used as an anxiety index. Videos were scored using ANY-maze behavior tracking software (Stoelting, Wood Dale, Ill.). Novelty-Suppressed Feeding: The NSF is a conflict test that elicits competing motivations: the drive to eat and the fear of venturing into the center of a brightly lit arena. The latency to feed is used as an index of anxiety-like behavior, because classical anxiolytic drugs decrease this measure. The NSF test was carried out during an 8 min period as previously described [S3]. Briefly, the testing apparatus consisted of a plastic box (50×50×20 cm), the floor of which was covered with approximately 2 cm of bedding. For 129S6/SvEv experiments, mice were food restricted for 12 h. For the C57BL/6N experiments, mice were food restricted for 24 h. […]

C57BL/6NTac mice [5] = assay: Adverse side effects of chronic administration; format: in vivo
Description: as §1

129S6/SvEv mice [6] = assay: 3-shock contextual fear conditioning (CFC); format: in vivo; conditions: for p value, CFC Re-exposure Average Freezing (%), Fisher's LSD: FIG. 2D; for freezing at re-exposure to the training context (learned fear) vs saline: re-exposure 5 days later
Description: as §2

[7] = female 129S6/SvEv, 1.5 or 10 mg/kg
[8] = FIG. 3 Acute RS67333 cohort, FIG. 3B, Fisher's PLSD

sigma 1, sequence (Q99720 whole entry): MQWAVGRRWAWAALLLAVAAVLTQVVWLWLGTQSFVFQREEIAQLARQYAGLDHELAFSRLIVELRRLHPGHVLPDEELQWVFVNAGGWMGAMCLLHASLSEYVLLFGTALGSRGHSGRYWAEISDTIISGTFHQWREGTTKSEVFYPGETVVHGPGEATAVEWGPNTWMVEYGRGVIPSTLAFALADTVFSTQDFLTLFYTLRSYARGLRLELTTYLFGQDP

CCCCN1CCC(CCC(=O)c2cc(Cl)c(N)cc2OC)CC1.Cl [RS-67,333, 1-(4-amino-5-chloro-2-methoxyphenyl)-3-[1(n-butyl)-4-piperidinyl]-1-propanone HCl]
latency to approach the food pellet (NSF) vs CORT+Veh (C57BL/6NTac mice [1]): significantly decreased latency | pKi sigma 1 (sigma 1): 8.9 | pKi for other neurotransmitter receptors [2]: less than 6.7 | grooming duration (ST) vs CORT+Veh (C57BL/6NTac mice [3]): increased grooming duration | p, EPM Time in Open, Saline vs. RS67333 (10 mg/kg) (129S6/SvEv mice [4]; FIG. 2J, t-test): 0.2069 | p, EPM Entries into Open, Saline vs. RS67333 (10 mg/kg) (129S6/SvEv mice [4]; FIG. 2K, t-test): 0.3584 | entries into the open arms of the EPM (129S6/SvEv mice [4]; [7]): comparable | time spent in the open arms of the EPM (129S6/SvEv mice [4]; [7]): comparable | entries into the open arms of the EPM vs saline (129S6/SvEv mice [4]; male 129S6/SvEv, 10 mg/kg): neither in the open arms nor entries into the open arms of the maze was significantly different | time in the open arms of the EPM vs saline (129S6/SvEv mice [4]; male 129S6/SvEv, 10 mg/kg): neither in the open arms nor entries into the open arms of the maze was significantly different | adverse side effects (C57BL/6NTac mice [5]): did not result in adverse side effects | p value, CFC Re-exposure Average Freezing (%), Fisher's LSD (129S6/SvEv mice [6]; RS67333 (1.5 mg/kg) vs. (second group beyond the rows shown)): 0.3259 | p value, CFC Re-exposure Average Freezing (%), Fisher's LSD (129S6/SvEv mice [6]; RS67333 (1.5 mg/kg) vs. RS67333 (10 mg/kg)): 0.8278 | p value, CFC Re-exposure Average Freezing (%), Fisher's LSD (129S6/SvEv mice [6]; Saline vs. RS67333 (1.5 mg/kg)): 0.0185 | p value, CFC Re-exposure Average Freezing (%), Fisher's LSD (129S6/SvEv mice [6]; Saline vs. RS67333 (10 mg/kg)): 0.0006 | p value, CFC Re-exposure Average Freezing (%), Fisher's LSD (129S6/SvEv mice [6]; Saline vs. RS67333 (30 mg/kg)): 0.2625 | p, RS67333 (10 mg/kg) vs. RS67333 (30 mg/kg) (129S6/SvEv mice [6]; FIG. 2 cohort, post-hoc comparison, measurement head lies above the shown rows (block before FST)): 0.3050 | p, CFC Trainging Freezing (%), RS67333 (1.5 mg/kg) vs. RS67333 (10 mg/kg) (129S6/SvEv mice [6]; [8]): 0.3858 | p, CFC Trainging Freezing (%), Saline vs. RS67333 (1.5 mg/kg) (129S6/SvEv mice [6]; [8]): 0.0941 | p, CFC Trainging Freezing (%), Saline vs. RS67333 (10 mg/kg) (129S6/SvEv mice [6]; [8]): 0.0076 | p, CFC Training Freezing (min 1), RS67333 (1.5 mg/kg) vs. RS67333 (10 mg/kg) (129S6/SvEv mice [6]; FIG. 3 cohort, Fisher's PLSD): 0.9715 | p, CFC Training Freezing (min 1), Saline vs. RS67333 (1.5 mg/kg) (129S6/SvEv mice [6]; FIG. 3 cohort, Fisher's PLSD): 0.8847 | p, CFC Training Freezing (min 1), Saline vs. RS67333 (10 mg/kg) (129S6/SvEv mice [6]; FIG. 3 cohort, Fisher's PLSD): 0.9054 | p, CFC Training Freezing (min 3), RS67333 (1.5 mg/kg) vs. RS67333 (10 mg/kg) (129S6/SvEv mice [6]; FIG. 3 cohort, Fisher's PLSD): 0.8746 | p, CFC Training Freezing (min 3), Saline vs. RS67333 (1.5 mg/kg) (129S6/SvEv mice [6]; FIG. 3 cohort, Fisher's PLSD): 0.8999 | p, CFC Training Freezing (min 3), Saline vs. RS67333 (10 mg/kg) (129S6/SvEv mice [6]; FIG. 3 cohort, Fisher's PLSD): 0.9721 | p, CFC Training Freezing (min 4), RS67333 (1.5 mg/kg) vs. RS67333 (10 mg/kg) (129S6/SvEv mice [6]; FIG. 3 cohort, Fisher's PLSD): 0.7882 | p, CFC Training Freezing (min 4), Saline vs. RS67333 (1.5 mg/kg) (129S6/SvEv mice [6]; FIG. 3 cohort, Fisher's PLSD): 0.0168 | p, CFC Training Freezing (min 4), Saline vs. RS67333 (10 mg/kg) (129S6/SvEv mice [6]; FIG. 3 cohort, Fisher's PLSD): 0.0040 | p, CFC Training Freezing (min 5), RS67333 (1.5 mg/kg) vs. RS67333 (10 mg/kg) (129S6/SvEv mice [6]; FIG. 3 cohort, Fisher's PLSD): 0.0492 | p, CFC Training Freezing (min 5), Saline vs. RS67333 (1.5 mg/kg) (129S6/SvEv mice [6]; FIG. 3 cohort, Fisher's PLSD): 0.0117 | p, CFC Training Freezing (min 5), Saline vs. RS67333 (10 mg/kg) (129S6/SvEv mice [6]; FIG. 3 cohort, Fisher's PLSD): <0.0001 | p, CFC Training freezing (min 2), RS67333 (1.5 mg/kg) vs. RS67333 (10 mg/kg) (129S6/SvEv mice [6]; FIG. 3 cohort, Fisher's PLSD): 0.9854 | p, CFC Training freezing (min 2), Saline vs. RS67333 (1.5 mg/kg) (129S6/SvEv mice [6]; FIG. 3 cohort, Fisher's PLSD): 0.8966 | p, CFC Training freezing (min 2), Saline vs. RS67333 (10 mg/kg) (129S6/SvEv mice [6]; FIG. 3 cohort, Fisher's PLSD): 0.8719 | freezing at re-exposure to the training context (129S6/SvEv mice [6]; female 129S6/SvEv, 1.5 or 10 mg/kg vs saline, 5 days after CFC): comparable levels of freezing | freezing during CFC training (129S6/SvEv mice [6]; female 129S6/SvEv, single injection 1 week before CFC, 1.5 or 10 mg/kg vs saline): comparable levels of freezing | freezing during CFC training vs saline (129S6/SvEv mice [6]; male 129S6/SvEv, single i.p. injection 1 week before CFC, 30 mg/kg): significantly less freezing | freezing at re-exposure to the training context (learned fear) vs saline (129S6/SvEv mice [6]; male 129S6/SvEv, single i.p. injection 1 week before CFC, 1.5 mg/kg): significantly less freezing | freezing at re-exposure to the training context (learned fear) vs saline (129S6/SvEv mice [6]; male 129S6/SvEv, single i.p. injection 1 week before CFC, 10 mg/kg): significantly less freezing
